ChEMBL document CHEMBL3885861, “Open TG-GATES”

Species: Rattus norvegicus
Test: Open TG-GATES - Regimen: Daily Repeat
Format: toxicity, organism-based, Sprague-Dawley
Parameters: regimen Daily Repeat, gender Male, age 6 weeks
Conditions: in vivo, po, 10 mg/kg, route gavage, dose level Middle; for APTT / Bas / Eos / Fbg / Hb / Ht / Lym / MCH / MCHC / MCV / Mono / Neu / PT / Plat / RBC / Ret / WBC: tissue Blood; for KIDNEY_L / KIDNEY_R / KIDNEY_TOTAL: tissue Kidney; for LIVER: tissue Liver; for A/G / ALP / ALT / AST / BUN / CRE / Ca / Cl / DBIL / GLC / IP / K / LDH / Na / PL / RALB / TBIL / TC / TG / TP / gamma-GTP: tissue Plasma

Nc1c2c(nc3ccccc13)CCCC2 [TACRINE]
TERMINAL_BW (72 h, time 3 day): 217.3 g | APTT (72 h, time 3 day): 19.9 s | Bas (72 h, time 3 day): 0% | Eos (72 h, time 3 day): 1% | Fbg (72 h, time 3 day): 290 mg/dL | Hb (72 h, time 3 day): 13.5 g/dL | Ht (72 h, time 3 day): 38.4% | Lym (72 h, time 3 day): 76.8% | MCH (72 h, time 3 day): 21 pg | MCHC (72 h, time 3 day): 35.3% | MCV (72 h, time 3 day): 59.5 fL | Mono (72 h, time 3 day): 2.2% | Neu (72 h, time 3 day): 19.2% | PT (72 h, time 3 day): 15.7 s | Plat (72 h, time 3 day): 128 x10_4/uL | RBC (72 h, time 3 day): 645.4 x10_4/ul | Ret (72 h, time 3 day): 5.5% | WBC (72 h, time 3 day): 74.8 x10_2/uL | KIDNEY_L (72 h, time 3 day): 0.9 g | KIDNEY_R (72 h, time 3 day): 1 g | KIDNEY_TOTAL (72 h, time 3 day): 1.9 g | LIVER (72 h, time 3 day): 9.2 g | A/G (72 h, time 3 day): 1.2 | ALP (72 h, time 3 day): 1488.6 IU/L | ALT (72 h, time 3 day): 42.6 IU/L | AST (72 h, time 3 day): 75.4 IU/L | BUN (72 h, time 3 day): 14.4 mg/dL | CRE (72 h, time 3 day): 0.2 mg/dL | Ca (72 h, time 3 day): 10.6 mg/dL | Cl (72 h, time 3 day): 108 meq/L | DBIL (72 h, time 3 day): 0 mg/dL | GLC (72 h, time 3 day): 186.2 mg/dL | IP (72 h, time 3 day): 7.1 mg/dL | K (72 h, time 3 day): 4.4 meq/L | LDH (72 h, time 3 day): 253 IU/L | Na (72 h, time 3 day): 142 meq/L | PL (72 h, time 3 day): 153.6 mg/dL | RALB (72 h, time 3 day): 3.1 g/dL | TBIL (72 h, time 3 day): 0.014 mg/dL | TC (72 h, time 3 day): 78.6 mg/dL | TG (72 h, time 3 day): 94.4 mg/dL | TP (72 h, time 3 day): 5.7 g/dL | gamma-GTP (72 h, time 3 day): 1 IU/L | TERMINAL_BW ([…], time 7 day): 245.3 g | TERMINAL_BW ([…], time 14 day): 297.7 g | TERMINAL_BW ([…], time 28 day): 336.4 g | APTT ([…], time 7 day): 22.4 s | Bas ([…], time 7 day): 0% | Eos ([…], time 7 day): 0.6% | Fbg ([…], time 7 day): 307.4 mg/dL | Hb ([…], time 7 day): 14 g/dL | Ht ([…], time 7 day): 40.1% | Lym ([…], time 7 day): 77.4% | MCH ([…], time 7 day): 20.9 pg | MCHC ([…], time 7 day): 34.8% | MCV ([…], time 7 day): 60 fL | Mono ([…], time 7 day): 2.2% | Neu ([…], time 7 day): 18.8% | PT ([…], time 7 day): 15.8 s | Plat ([…], time 7 day): 117.3 x10_4/uL | RBC ([…], time 7 day): 668 x10_4/ul | Ret ([…], time 7 day): 5.4% | WBC ([…], time 7 day): 103.5 x10_2/uL | APTT ([…], time 14 day): 23.1 s | Bas ([…], time 14 day): 0% | Eos ([…], time 14 day): 0.8% | Fbg ([…], time 14 day): 317.6 mg/dL | Hb ([…], time 14 day): 14.7 g/dL | Ht ([…], time 14 day): 41.8% | Lym ([…], time 14 day): 84.4% | MCH ([…], time 14 day): 20.8 pg | MCHC ([…], time 14 day): 35.1% | MCV ([…], time 14 day): 59.4 fL | Mono ([…], time 14 day): 1.4% | Neu ([…], time 14 day): 12.6% | PT ([…], time 14 day): 15.5 s | Plat ([…], time 14 day): 117.2 x10_4/uL | RBC ([…], time 14 day): 704.4 x10_4/ul | Ret ([…], time 14 day): 4.3% | WBC ([…], time 14 day): 95.3 x10_2/uL | APTT ([…], time 28 day): 22.6 s | Bas ([…], time 28 day): 0% | Eos ([…], time 28 day): 1% | Fbg ([…], time 28 day): 301.8 mg/dL | Hb ([…], time 28 day): 15.1 g/dL | Ht ([…], time 28 day): 41.2% | Lym ([…], time 28 day): 79.6% | MCH ([…], time 28 day): 20.1 pg | MCHC ([…], time 28 day): 36.7% | MCV ([…], time 28 day): 54.7 fL | Mono ([…], time 28 day): 2% | Neu ([…], time 28 day): 16.6% | PT ([…], time 28 day): 16.4 s | Plat ([…], time 28 day): 93.2 x10_4/uL | RBC ([…], time 28 day): 752 x10_4/ul | Ret ([…], time 28 day): 2.9% | WBC ([…], time 28 day): 95.4 x10_2/uL | KIDNEY_L ([…], time 7 day): 1 g | KIDNEY_R ([…], time 7 day): 1.1 g | KIDNEY_TOTAL ([…], time 7 day): 2.1 g | KIDNEY_L ([…], time 14 day): 1.1 g | KIDNEY_R ([…], time 14 day): 1.2 g | KIDNEY_TOTAL ([…], time 14 day): 2.3 g | KIDNEY_L ([…], time 28 day): 1.2 g | KIDNEY_R ([…], time 28 day): 1.2 g | KIDNEY_TOTAL ([…], time 28 day): 2.4 g | LIVER ([…], time 7 day): 10.5 g | LIVER ([…], time 14 day): 12.6 g | LIVER ([…], time 28 day): 12.9 g | A/G ([…], time 7 day): 1.2 | ALP ([…], time 7 day): 1555.6 IU/L | ALT ([…], time 7 day): 42.2 IU/L | AST ([…], time 7 day): 82.8 IU/L | BUN ([…], time 7 day): 15.8 mg/dL | CRE ([…], time 7 day): 0.2 mg/dL | Ca ([…], time 7 day): 10.6 mg/dL | Cl ([…], time 7 day): 108.2 meq/L | DBIL ([…], time 7 day): 0.004 mg/dL | GLC ([…], time 7 day): 180 mg/dL | IP ([…], time 7 day): 6.8 mg/dL | K ([…], time 7 day): 4.1 meq/L | LDH ([…], time 7 day): 235.6 IU/L | Na ([…], time 7 day): 141 meq/L | PL ([…], time 7 day): 145.2 mg/dL | RALB ([…], time 7 day): 3 g/dL | TBIL ([…], time 7 day): 0.024 mg/dL | TC ([…], time 7 day): 72.2 mg/dL | TG ([…], time 7 day): 120.8 mg/dL | TP ([…], time 7 day): 5.5 g/dL | gamma-GTP ([…], time 7 day): 1 IU/L | A/G ([…], time 14 day): 1.2 | ALP ([…], time 14 day): 1291.4 IU/L | ALT ([…], time 14 day): 36.8 IU/L | AST ([…], time 14 day): 67.8 IU/L | BUN ([…], time 14 day): 18.4 mg/dL | CRE ([…], time 14 day): 0.2 mg/dL | Ca ([…], time 14 day): 10.8 mg/dL | Cl ([…], time 14 day): 108 meq/L | DBIL ([…], time 14 day): 0 mg/dL | GLC ([…], time 14 day): 185.2 mg/dL | IP ([…], time 14 day): 6.4 mg/dL | K ([…], time 14 day): 4 meq/L | LDH ([…], time 14 day): 168 IU/L | Na ([…], time 14 day): 142.6 meq/L | PL ([…], time 14 day): 152.6 mg/dL | RALB ([…], time 14 day): 3.2 g/dL | TBIL ([…], time 14 day): 0.004 mg/dL | TC ([…], time 14 day): 75 mg/dL | TG ([…], time 14 day): 136.2 mg/dL | TP ([…], time 14 day): 5.8 g/dL | gamma-GTP ([…], time 14 day): 1 IU/L | A/G ([…], time 28 day): 1.1 | ALP ([…], time 28 day): 1046.8 IU/L | ALT ([…], time 28 day): 37 IU/L | AST ([…], time 28 day): 63.4 IU/L | BUN ([…], time 28 day): 18.8 mg/dL | CRE ([…], time 28 day): 0.2 mg/dL | Ca ([…], time 28 day): 10.5 mg/dL | Cl ([…], time 28 day): 107.4 meq/L | DBIL ([…], time 28 day): 0 mg/dL | GLC ([…], time 28 day): 188.8 mg/dL | IP ([…], time 28 day): 6.7 mg/dL | K ([…], time 28 day): 4.1 meq/L | LDH ([…], time 28 day): 116 IU/L | Na ([…], time 28 day): 141.8 meq/L | PL ([…], time 28 day): 142 mg/dL | RALB ([…], time 28 day): 3.1 g/dL | TBIL ([…], time 28 day): 0.006 mg/dL | TC ([…], time 28 day): 70.4 mg/dL | TG ([…], time 28 day): 121 mg/dL | TP ([…], time 28 day): 5.9 g/dL | gamma-GTP ([…], time 28 day): 1.2 IU/L
